Experiments:
p110α = p110α (Homo sapiens, UniProt P42336); assay: Chick embryo fibroblast (CEF) transformation assay, p110α; format: cell-based; settings: read-out: EC-50 for functional activity of p110α, highest concentration tested 2000 nM
Text: Moreover, compound I has comparatively low activity on p110α in a cell-transformation system designed to measure functional activity of these kinases, but is a potent inhibitor of both p110β and p110δ in that assay. See Example 1. This chick embryo fibroblast (CEF) transformation system has been reported as a useful way to assess the functional activity of the PI3K signaling pathway. Denley, et al., “Oncogenic signaling of class I PI3K isoforms,” Oncogene, vol. 27(18), 2561-74 (2008). Transformation of CEF cells in the assay depends upon functional kinase activity. Kang, et al., Proc. Nat'l Acad. Sci. USA, vol. 103(5), 1289-94 (2006). The readout of this assay is based on the frequency of transformation of CEF cells exposed to viral vectors carrying a specific p110 isoform of interest.
Chick embryo fibroblasts (CEF) are transduced with viral stocks with versions of the human genes for the individual PI3K isoforms p110α, p110β, p110δ and p110γ. These transduced CEF lines are then plated in a growth medium where oncogenically transformed cells form foci that can then be stained and counted. […] Denley A, Kang S, Karst U and Vogt PK, “Oncogenic signaling of class 1 PI3K isoforms.” Oncogene (2008) 27: 2561-2574. FIG. 3 illustrates the readout of this assay.

OVCAR-3 [1] = assay: Tumor cell culture growth, optical density at 459 nm (FIG. 7), OVCAR-3; format: cell-based; settings: OVCAR-3, 5-10 micromolar
in vivo = assay: in vivo; design: species or system mice; settings: female, nu/nu, mouse
Method: At this range, which was the effective dosage used in the tests shown in FIGS. 8 and 9, plasma concentration of compound I reaches about 5000-7000 ng/mL.
Compound I was administered in a single dose at a rate of 30 mg/kg to each test subject, and plasma levels were monitored for 12 hours thereafter. Plasma levels of Compound I peaked around 2-4 hours after administration in each case, and had essentially returned to zero 8 hours after the single dose at this rate, as shown in FIG. 10. The peak plasma concentration for these subjects, after a single injection at the dose shown to be effective for inhibiting tumor growth of each xenograft (see the preceding examples, and FIGS. 8-9) were generally below about 7000 ng/mL.

[2] = system: NCI panel cancer cell lines; assay: NCI panel of tumor cell assays, summary over cell lines; format: cell-based; settings: for Cell line number: GI50 less than 2 micromolar
Text: Compound I has also been tested in a battery of tumor cell assays known as the NCI panel. […] Using this measure, 1.8% of cell lines were particularly sensitive to Compound B at this level, while 39% were particularly sensitive to Compound I at the same concentration. […] Loss of PTEN activity often occurs in cancers, and enhances the sensitivity of a tumor to PI3K inhibitors. […] The following Table summarizes the cell lines found to be sensitive to Compound I and the known mutations in those cell lines.

EKVX = assay: NCI panel growth inhibition, EKVX; format: cell-based; settings: Homo sapiens, Non-Small Cell Lung Cancer
Text: (§1) Compound I has also been tested in a battery of tumor cell assays known as the NCI panel.

NCI-H460 = assay: NCI panel growth inhibition, NCI-H460; format: cell-based; settings: Homo sapiens, Non-Small Cell Lung Cancer
Text: as §1

NCI-H522 = assay: NCI panel growth inhibition, NCI-H522; format: cell-based; settings: Homo sapiens, Non-Small Cell Lung Cancer
Text: as §1

COLO 205 = assay: NCI panel growth inhibition, COLO 205; format: cell-based; settings: Homo sapiens, Colon Cancer
Text: as §1

HCC-2998 = assay: NCI panel growth inhibition, HCC-2998; format: cell-based; settings: Homo sapiens, Colon Cancer
Text: as §1

HCT-116 = assay: NCI panel growth inhibition, HCT-116; format: cell-based; settings: Homo sapiens, Colon Cancer
Text: as §1

SW-620 = assay: NCI panel growth inhibition, SW-620; format: cell-based; settings: Homo sapiens, Colon Cancer
Text: as §1

SF-268 = assay: NCI panel growth inhibition, SF-268; format: cell-based; settings: Homo sapiens, CNS Cancer
Text: as §1

SF-539 = assay: NCI panel growth inhibition, SF-539; format: cell-based; settings: Homo sapiens, CNS Cancer
Text: as §1

SNB-75 = assay: NCI panel growth inhibition, SNB-75; format: cell-based; settings: Homo sapiens, CNS Cancer
Text: as §1

LOX IMVI = assay: NCI panel growth inhibition, LOX IMVI; format: cell-based; settings: Homo sapiens, Melanoma
Text: as §1

M14 = assay: NCI panel growth inhibition, M14; format: cell-based; settings: Homo sapiens, Melanoma
Text: as §1

SK-MEL-28 = assay: NCI panel growth inhibition, SK-MEL-28; format: cell-based; settings: Homo sapiens, Melanoma
Text: as §1

SK-MEL-5 = assay: NCI panel growth inhibition, SK-MEL-5; format: cell-based; settings: Homo sapiens, Melanoma
Text: as §1

UACC-257 = assay: NCI panel growth inhibition, UACC-257; format: cell-based; settings: Homo sapiens, Melanoma
Text: as §1

OVCAR-3 [3] = assay: NCI panel growth inhibition, OVCAR-3; format: cell-based; settings: Homo sapiens, Ovarian
Text: as §1

OVCAR-4 = assay: NCI panel growth inhibition, OVCAR-4; format: cell-based; settings: Homo sapiens, Ovarian
Text: as §1

SK-OV-3 = assay: NCI panel growth inhibition, SK-OV-3; format: cell-based; settings: Homo sapiens, Ovarian
Text: as §1

786-0 = assay: NCI panel growth inhibition, 786-0; format: cell-based; settings: Homo sapiens, Renal
Text: as §1

A498 = assay: NCI panel growth inhibition, A498; format: cell-based; settings: Homo sapiens, Renal
Text: as §1

TK-10 = assay: NCI panel growth inhibition, TK-10; format: cell-based; settings: Homo sapiens, Renal
Text: as §1

MCF7 = assay: NCI panel growth inhibition, MCF7; format: cell-based; settings: Homo sapiens, Breast Cancer
Text: as §1

MDA-MB-435 = assay: NCI panel growth inhibition, MDA-MB-435; format: cell-based; settings: Homo sapiens, Breast Cancer
Text: as §1

T-47D = assay: NCI panel growth inhibition, T-47D; format: cell-based; settings: Homo sapiens, T47D, Breast Cancer
Text: as §1

Chain of p110α (P42336 whole entry, stated change not applied, canonical isoform): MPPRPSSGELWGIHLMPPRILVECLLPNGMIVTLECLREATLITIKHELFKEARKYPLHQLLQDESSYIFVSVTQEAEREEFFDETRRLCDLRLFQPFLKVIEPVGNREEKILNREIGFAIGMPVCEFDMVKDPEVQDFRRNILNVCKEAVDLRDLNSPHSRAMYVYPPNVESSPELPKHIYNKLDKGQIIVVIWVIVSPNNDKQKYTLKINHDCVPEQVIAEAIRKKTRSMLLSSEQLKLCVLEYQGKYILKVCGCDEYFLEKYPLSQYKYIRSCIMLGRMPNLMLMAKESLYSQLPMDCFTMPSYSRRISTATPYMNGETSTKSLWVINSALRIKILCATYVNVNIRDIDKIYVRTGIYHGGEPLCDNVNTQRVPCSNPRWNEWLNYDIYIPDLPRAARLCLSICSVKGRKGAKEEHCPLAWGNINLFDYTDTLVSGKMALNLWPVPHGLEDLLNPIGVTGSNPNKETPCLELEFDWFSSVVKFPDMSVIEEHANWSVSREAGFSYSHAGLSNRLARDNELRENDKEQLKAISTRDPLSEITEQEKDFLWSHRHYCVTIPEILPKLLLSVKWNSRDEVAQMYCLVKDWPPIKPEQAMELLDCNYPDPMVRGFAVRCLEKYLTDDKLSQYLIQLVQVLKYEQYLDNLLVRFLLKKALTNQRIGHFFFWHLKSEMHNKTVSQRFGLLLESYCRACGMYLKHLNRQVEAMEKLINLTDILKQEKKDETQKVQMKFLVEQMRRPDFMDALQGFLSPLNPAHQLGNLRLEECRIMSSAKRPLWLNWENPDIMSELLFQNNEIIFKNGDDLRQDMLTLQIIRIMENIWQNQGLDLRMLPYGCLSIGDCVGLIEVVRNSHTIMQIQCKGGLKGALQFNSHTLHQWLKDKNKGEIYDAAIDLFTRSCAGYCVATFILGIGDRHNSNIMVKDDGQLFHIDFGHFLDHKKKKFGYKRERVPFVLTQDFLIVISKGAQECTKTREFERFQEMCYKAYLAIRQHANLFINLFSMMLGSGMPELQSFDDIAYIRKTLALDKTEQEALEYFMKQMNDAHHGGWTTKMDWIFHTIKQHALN

C[C@H](Nc1ncnc2[nH]cnc12)c1nc2ccc(F)cc2c(=O)n1-c1ccccc1 [Compound I]
EC50 (p110α): > 2 µM | Inhibition of tumor cell culture growth (OVCAR-3 [1]): strong inhibition of growth | AUC (in vivo): 18,000 ng-h/mL | Time after which plasma levels had essentially returned to zero (in vivo; 30 mg/kg): 8 h | Time of peak plasma level after administration (in vivo; 30 mg/kg): 2 to 4 h | AUC (in vivo; AUC): 15000 ng·h/mL | % EC50 < 2 μM ([2]; Breast): 62% | Cell line number ([2]; Breast): 5/8 | % EC50 < 2 μM ([2]; CNS): 50% | Cell line number ([2]; CNS): 3/6 | % EC50 < 2 μM ([2]; Colon): 14% | Cell line number ([2]; Colon): 1/7 | % EC50 < 2 μM ([2]; Melanoma): 12% | Cell line number ([2]; Melanoma): 1/8 | Cell lines with mutations in PTEN inhibited ([2]; NCI panel cell lines known to have PTEN mutations): 70% | % EC50 < 2 μM ([2]; NSCLC): 11% | Cell line number ([2]; NSCLC): 1/9 | % EC50 < 2 μM ([2]; Ovarian): 33% | Cell line number ([2]; Ovarian): 2/6 | Cell line number ([2]; Prostate): 2/2 | % EC50 < 2 μM ([2]; Prostrate): 100% | % EC50 < 2 μM ([2]; Renal): 75% | Cell line number ([2]; Renal): 6/8 | Cell lines particularly sensitive (GI50 of 2 micromolar or less) ([2]; all NCI panel cell lines): 39% | GI50 (EKVX): 16.7 µM | GI50 (NCI-H460): 25.7 µM | GI50 (NCI-H522): 51.8 µM | GI50 (COLO 205): 33.8 µM | GI50 (HCC-2998): 32.4 µM | GI50 (HCT-116): 37.9 µM | GI50 (SW-620): 69.3 µM | GI50 (SF-268): 1.89 µM | GI50 (SF-539): 15.9 µM | GI50 (SNB-75): 0.0594 µM | GI50 (LOX IMVI): 36.1 µM | GI50 (M14): 88.9 µM | GI50 (SK-MEL-28): 12.8 µM | GI50 (SK-MEL-5): 31.3 µM | GI50 (UACC-257): 17.4 µM | GI50 (OVCAR-3 [3]): 0.316 µM | GI50 (OVCAR-4): 100 µM | GI50 (SK-OV-3): 4.02 µM | GI50 (786-0): 1.99 µM | GI50 (A498): 0.615 µM | GI50 (TK-10): 1.24 µM | GI50 (MCF7): 2.54 µM | GI50 (MDA-MB-435): 43.1 µM | GI50 (T-47D): 0.571 µM

— US8546409B2, “Methods of treatment for solid tumors” (priority 2009, dated 2013)
